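Assay format: 96-well plates, 48-hour exposure. Abbreviation: GI50, concentration required for 50% inhibition of growth.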 Activity calls are given as the source filed them. No stated cut-off is given here; in the data, active = GI50 up to about 1.1 µM and inactive = higher.
Columns and labels:
Experiment in all cases: NCI-60 cell line screen, 48 h
NCI-H226 = test system: NCI-H226
SR = test system: SR
HOP-92 = test system: HOP-92
TK-10 = test system: TK-10
SF-268 = test system: SF-268
UACC-257 = test system: UACC-257
RPMI-8226 = test system: RPMI-8226
SNB-19 = test system: SNB-19
CCRF-CEM = test system: CCRF-CEM
SW-620 = test system: SW-620
K562 = test system: K562
Malme-3M = test system: Malme-3M
SNB-75 = test system: SNB-75
KM12 = test system: KM12
ACHN = test system: ACHN
HCT-116 = test system: HCT-116
U-251 = test system: U-251
UO-31 = test system: UO-31
786-0 = test system: 786-0
NCI-H522 = test system: NCI-H522
SF-295 = test system: SF-295
SF-539 = test system: SF-539
M19-MEL = test system: M19-MEL
UACC-62 = test system: UACC-62
OVCAR-8 = test system: OVCAR-8
HOP-62 = test system: HOP-62
HT-29 = test system: HT-29
HCC 2998 = test system: HCC 2998
LOX IMVI = test system: LOX IMVI
IGROV-1 = test system: IGROV-1
OVCAR-5 = test system: OVCAR-5
SK-MEL-28 = test system: SK-MEL-28
NCI-H460 = test system: NCI-H460
A549 = test system: A549
KM-20L2 = test system: KM-20L2
SN12C = test system: SN12C
SK-MEL-5 = test system: SK-MEL-5
M14 = test system: M14
COLO 205 = test system: COLO 205
OVCAR-4 = test system: OVCAR-4
NCI-H23 = test system: NCI-H23
OVCAR-3 = test system: OVCAR-3
HCT-15 = test system: HCT-15
SNB-78 = test system: SNB-78
HL-60 = test system: HL-60
CAKI-1 = test system: CAKI-1
LXFL 529 = test system: LXFL 529
MOLT-4 = test system: MOLT-4
RXF 393 = test system: RXF 393
DLD-1 = test system: DLD-1
DMS-114 = test system: DMS-114
SK-OV-3 = test system: SK-OV-3
BT-549 = test system: BT-549
MDA-MB-231 = test system: MDA-MB-231
MCF7 = test system: MCF7
MDA-MB-435 = test system: MDA-MB-435
MDA-N = test system: MDA-N
SK-MEL-2 = test system: SK-MEL-2
EKVX = test system: EKVX
A498 = test system: A498
T47D = test system: T47D
Hs-578T = test system: Hs-578T
NCI/ADR-RES = test system: NCI/ADR-RES
DU-145 = test system: DU-145
PC-3 = test system: PC-3

With CCC(=O)N(O)C(C)(C)C the GI50 (NCI-H226) was > 100 µM (inactive), the GI50 (SR) was > 100 µM (inactive) and the GI50 (HOP-92) was > 100 µM (inactive). The GI50 (TK-10) was > 100 µM (inactive), the GI50 (SF-268) was > 100 µM (inactive) and the GI50 (UACC-257) was > 100 µM (inactive). The GI50 (RPMI-8226) was > 100 µM (inactive), the GI50 (SNB-19) was > 100 µM (inactive) and the GI50 (CCRF-CEM) was > 100 µM (inactive). The GI50 (SW-620) was > 100 µM (inactive), the GI50 (K562) was > 100 µM (inactive) and the GI50 (Malme-3M) was > 100 µM (inactive). For the same molecule, the GI50 (SNB-75) was 92.3 µM (inactive), the GI50 (KM12) was > 100 µM (inactive) and the GI50 (ACHN) was > 100 µM (inactive). For the same molecule, the GI50 (HCT-116) was > 100 µM (inactive), the GI50 (U-251) was > 100 µM (inactive) and the GI50 (UO-31) was > 100 µM (inactive). For the same molecule, the GI50 (786-0) was > 100 µM (inactive), the GI50 (NCI-H522) was > 100 µM (inactive) and the GI50 (SF-295) was > 100 µM (inactive). The GI50 (SF-539) was > 100 µM (inactive), the GI50 (M19-MEL) was > 100 µM (inactive) and the GI50 (UACC-62) was > 100 µM (inactive). For the same molecule, the GI50 (OVCAR-8) was > 100 µM (inactive), the GI50 (HOP-62) was > 100 µM (inactive) and the GI50 (HT-29) was > 100 µM (inactive). The GI50 (HCC 2998) was > 100 µM (inactive), the GI50 (LOX IMVI) was > 100 µM (inactive) and the GI50 (IGROV-1) was > 100 µM (inactive). The GI50 (OVCAR-5) was > 100 µM (inactive), the GI50 (SK-MEL-28) was > 100 µM (inactive) and the GI50 (NCI-H460) was > 100 µM (inactive). The GI50 (A549) was > 100 µM (inactive), the GI50 (KM-20L2) was > 100 µM (inactive) and the GI50 (SN12C) was > 100 µM (inactive). The GI50 (SK-MEL-5) was > 100 µM (inactive), the GI50 (M14) was > 100 µM (inactive) and the GI50 (COLO 205) was > 100 µM (inactive). For the same molecule, the GI50 (OVCAR-4) was > 100 µM (inactive), the GI50 (NCI-H23) was > 100 µM (inactive) and the GI50 (OVCAR-3) was > 100 µM (inactive). The GI50 (HCT-15) was greater than 100 µM, the GI50 (SNB-78) was > 100 µM (inactive) and the GI50 (HL-60) was > 100 µM (inactive). The GI50 (CAKI-1) was > 100 µM (inactive), the GI50 (LXFL 529) was > 100 µM (inactive) and the GI50 (MOLT-4) was > 100 µM (inactive). For the same molecule, the GI50 (RXF 393) was > 100 µM (inactive), the GI50 (DLD-1) was > 100 µM (inactive) and the GI50 (DMS-114) was > 100 µM (inactive). For the same molecule, the GI50 (SK-OV-3) was > 100 µM (inactive).

For CCCCCOC(=O)C(=O)Nc1[nH]nnc1C(N)=O, the GI50 (NCI-H226) was > 100 µM (inactive), the GI50 (SR) was > 100 µM (inactive) and the GI50 (BT-549) was > 100 µM (inactive). The GI50 (HOP-92) was > 100 µM (inactive), the GI50 (TK-10) was > 100 µM (inactive) and the GI50 (MDA-MB-231) was > 100 µM (inactive). For the same molecule, the GI50 (SF-268) was > 100 µM (inactive), the GI50 (UACC-257) was > 100 µM (inactive) and the GI50 (RPMI-8226) was > 100 µM (inactive). For the same molecule, the GI50 (SNB-19) was > 100 µM (inactive), the GI50 (CCRF-CEM) was > 100 µM (inactive) and the GI50 (SW-620) was > 100 µM (inactive). The GI50 (K562) was > 100 µM (inactive), the GI50 (MCF7) was > 100 µM (inactive) and the GI50 (Malme-3M) was > 100 µM (inactive). The GI50 (SNB-75) was > 100 µM (inactive), the GI50 (KM12) was > 100 µM (inactive) and the GI50 (ACHN) was > 100 µM (inactive). The GI50 (HCT-116) was > 100 µM (inactive), the GI50 (U-251) was > 100 µM (inactive) and the GI50 (UO-31) was > 100 µM (inactive). The GI50 (786-0) was > 100 µM (inactive), the GI50 (NCI-H522) was > 100 µM (inactive) and the GI50 (SF-295) was > 100 µM (inactive). The GI50 (SF-539) was > 100 µM (inactive), the GI50 (MDA-MB-435) was > 100 µM (inactive) and the GI50 (MDA-N) was > 100 µM (inactive). The GI50 (UACC-62) was > 100 µM (inactive), the GI50 (OVCAR-8) was > 100 µM (inactive) and the GI50 (SK-MEL-2) was > 100 µM (inactive). The GI50 (HOP-62) was > 100 µM (inactive), the GI50 (EKVX) was > 100 µM (inactive) and the GI50 (HT-29) was > 100 µM (inactive). For the same molecule, the GI50 (HCC 2998) was > 100 µM (inactive), the GI50 (LOX IMVI) was > 100 µM (inactive) and the GI50 (IGROV-1) was > 100 µM (inactive). For the same molecule, the GI50 (A498) was > 100 µM (inactive), the GI50 (OVCAR-5) was > 100 µM (inactive) and the GI50 (SK-MEL-28) was > 100 µM (inactive). For the same molecule, the GI50 (NCI-H460) was > 100 µM (inactive), the GI50 (A549) was > 100 µM (inactive) and the GI50 (T47D) was > 100 µM (inactive). For the same molecule, the GI50 (SN12C) was > 100 µM (inactive), the GI50 (SK-MEL-5) was > 100 µM (inactive) and the GI50 (M14) was > 100 µM (inactive). The GI50 (Hs-578T) was > 100 µM (inactive), the GI50 (COLO 205) was > 100 µM (inactive) and the GI50 (OVCAR-4) was > 100 µM (inactive). For the same molecule, the GI50 (NCI/ADR-RES) was > 100 µM (inactive), the GI50 (NCI-H23) was > 100 µM (inactive) and the GI50 (OVCAR-3) was > 100 µM (inactive). For the same molecule, the GI50 (HCT-15) was greater than 100 µM, the GI50 (HL-60) was > 100 µM (inactive) and the GI50 (CAKI-1) was > 100 µM (inactive). For the same molecule, the GI50 (MOLT-4) was > 100 µM (inactive), the GI50 (RXF 393) was > 100 µM (inactive) and the GI50 (DU-145) was > 100 µM (inactive). For the same molecule, the GI50 (PC-3) was > 100 µM (inactive) and the GI50 (SK-OV-3) was > 100 µM (inactive).

With Cc1cc(/N=N/c2c(O)ccc3ccccc23)ccc1/N=N/c1cccc([N+](C)(C)C)c1 the GI50 (NCI-H226) was 6.41 µM (inactive), the GI50 (SR) was 7.69 µM (inactive) and the GI50 (BT-549) was 3.08 µM (inactive). The GI50 (HOP-92) was 15.6 µM (inactive), the GI50 (TK-10) was 29.5 µM (inactive) and the GI50 (MDA-MB-231) was 8.57 µM (inactive). The GI50 (SF-268) was 10.7 µM (inactive), the GI50 (UACC-257) was 12.2 µM (inactive) and the GI50 (RPMI-8226) was 4.22 µM (inactive). The GI50 (SNB-19) was 3.71 µM (inactive), the GI50 (CCRF-CEM) was 7.16 µM (inactive) and the GI50 (SW-620) was 10.1 µM (inactive). For the same molecule, the GI50 (K562) was 13.2 µM (inactive), the GI50 (MCF7) was 7.1 µM (inactive) and the GI50 (Malme-3M) was 9.64 µM (inactive). The GI50 (SNB-75) was 4 µM (inactive), the GI50 (KM12) was 3.37 µM (inactive) and the GI50 (ACHN) was 23.8 µM (inactive). For the same molecule, the GI50 (HCT-116) was 9.82 µM (inactive), the GI50 (U-251) was 1.58 µM (inactive) and the GI50 (UO-31) was 15.7 µM (inactive). The GI50 (786-0) was 21 µM (inactive), the GI50 (NCI-H522) was 3.98 µM (inactive) and the GI50 (SF-295) was 20.6 µM (inactive). The GI50 (SF-539) was 5.71 µM (inactive), the GI50 (MDA-MB-435) was 6.25 µM (inactive) and the GI50 (MDA-N) was 12.9 µM (inactive). The GI50 (UACC-62) was 14.7 µM (inactive), the GI50 (OVCAR-8) was 10.1 µM (inactive) and the GI50 (SK-MEL-2) was 7.83 µM (inactive). The GI50 (HOP-62) was 11.4 µM (inactive), the GI50 (EKVX) was 17.6 µM (inactive) and the GI50 (HT-29) was 3.66 µM (inactive). The GI50 (HCC 2998) was 21.1 µM (inactive), the GI50 (LOX IMVI) was 4.56 µM (inactive) and the GI50 (IGROV-1) was 2.87 µM (inactive). The GI50 (A498) was 44.7 µM (inactive), the GI50 (OVCAR-5) was 17.7 µM (inactive) and the GI50 (SK-MEL-28) was 16 µM (inactive). For the same molecule, the GI50 (NCI-H460) was 9.42 µM (inactive), the GI50 (A549) was 12.1 µM (inactive) and the GI50 (T47D) was 6.22 µM (inactive). The GI50 (SN12C) was 7.11 µM (inactive), the GI50 (SK-MEL-5) was 2.86 µM (inactive) and the GI50 (M14) was 13.6 µM (inactive). For the same molecule, the GI50 (Hs-578T) was 4.17 µM (inactive), the GI50 (COLO 205) was 2.47 µM (inactive) and the GI50 (OVCAR-4) was > 27.1 µM (inactive). The GI50 (NCI/ADR-RES) was 74.1 µM (inactive), the GI50 (NCI-H23) was 13.3 µM (inactive) and the GI50 (OVCAR-3) was 5.21 µM (inactive). For the same molecule, the GI50 (HCT-15) was 31 µM, the GI50 (HL-60) was 2.38 µM (inactive) and the GI50 (CAKI-1) was 22.7 µM (inactive). The GI50 (MOLT-4) was 10.8 µM (inactive), the GI50 (RXF 393) was 16.1 µM (inactive) and the GI50 (DU-145) was 19.6 µM (inactive). For the same molecule, the GI50 (PC-3) was 6.81 µM (inactive) and the GI50 (SK-OV-3) was 21.3 µM (inactive).

For CNc1nc(N(C)C)nc(N(C)C)n1 [PENTAMETHYL MELAMINE], the GI50 (LXFL 529) was > 100 µM (inactive).

— ChEMBL document CHEMBL1201862, “PubChem BioAssay data set” (2004)
